Results as given in ChEMBL document CHEMBL1201862, “PubChem BioAssay data set” (2004).
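The compound was tested at five concentrations on cells cultured in 96-well plates, with a 48-hour exposure period. Abbreviation: GI50, concentration required for 50% inhibition of growth.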 Active and inactive are the calls of the source. Rule as the data show it: active = GI50 up to about 1.1 µM and inactive = higher.

Key:
Experiment in all cases: growth of human tumour cells (NCI), 48 h
CCRF-CEM = system: CCRF-CEM
COLO 205 = system: COLO 205
EKVX = system: EKVX
HL-60 = system: HL-60
Hs-578T = system: Hs-578T
IGROV-1 = system: IGROV-1
LOX IMVI = system: LOX IMVI
NCI-H23 = system: NCI-H23
PC-3 = system: PC-3
RXF 393 = system: RXF 393
SF-268 = system: SF-268
SF-295 = system: SF-295
SK-MEL-5 = system: SK-MEL-5
SNB-75 = system: SNB-75
TK-10 = system: TK-10
UACC-257 = system: UACC-257
UACC-62 = system: UACC-62
RPMI-8226 = system: RPMI-8226
HCC 2998 = system: HCC 2998

Measured: GI50

N#Cc1ccc(N2CCOCC2)cc1
active: CCRF-CEM 0.975 µM
inactive: COLO 205 > 100 µM | EKVX > 100 µM | HL-60 > 100 µM | Hs-578T > 100 µM | IGROV-1 > 100 µM | LOX IMVI 23 µM | NCI-H23 80.5 µM | PC-3 > 100 µM | RXF 393 > 100 µM | SF-268 > 100 µM | SF-295 > 100 µM | SK-MEL-5 > 100 µM | SNB-75 > 100 µM | TK-10 > 100 µM | UACC-257 > 100 µM | UACC-62 > 100 µM

Nc1cc2c(nnn2C2OC(COCc3ccccc3)C(OCc3ccccc3)C2OCc2ccccc2)c(=O)[nH]1 (stereo not drawn)
inactive: CCRF-CEM 10.3 µM | COLO 205 7.33 µM | EKVX 6.15 µM | HL-60 5.47 µM | Hs-578T 97.1 µM | IGROV-1 33.1 µM | LOX IMVI 14.1 µM | NCI-H23 19.5 µM | PC-3 6.4 µM | RXF 393 6.75 µM | SF-268 29.4 µM | SF-295 17.7 µM | SK-MEL-5 7.26 µM | SNB-75 25.8 µM | TK-10 10 µM | UACC-257 14.9 µM | UACC-62 14.9 µM

CNC(=O)C1OC(n2cnc3c(NCc4cccc(I)c4)nc(Cl)nc32)C(O)C1O (stereo not drawn)
inactive: CCRF-CEM 16.7 µM | COLO 205 22.5 µM | EKVX 13.5 µM | HL-60 15.3 µM | Hs-578T 1.55 µM | IGROV-1 14.1 µM | LOX IMVI 6.18 µM | NCI-H23 12.7 µM | PC-3 11.9 µM | RPMI-8226 18.9 µM | RXF 393 10.4 µM | SF-268 11.4 µM | SF-295 18.7 µM | SK-MEL-5 12 µM | TK-10 16.3 µM | UACC-257 11.4 µM | UACC-62 10.1 µM
active: SNB-75 0.839 µM

FC1(F)SC2CCCCCCCCCCC2C1(F)F (stereo not drawn)
inactive: CCRF-CEM 19.2 µM | COLO 205 18.6 µM | EKVX 35.5 µM | HL-60 15.4 µM | Hs-578T 36.1 µM | IGROV-1 76 µM | LOX IMVI 16.4 µM | NCI-H23 23.8 µM | PC-3 42.6 µM | RPMI-8226 59.7 µM | RXF 393 20.7 µM | SF-268 29.2 µM | SF-295 28.6 µM | SK-MEL-5 32.9 µM | SNB-75 30.6 µM | TK-10 56.2 µM | UACC-257 20.5 µM | UACC-62 33.9 µM

CN1CC2=C(N=C(S)NC2c2ccc(Cl)cc2)/C(=C/c2ccc(Cl)cc2)C1 (stereo not drawn)
inactive: CCRF-CEM 13.5 µM | COLO 205 17.4 µM | EKVX 19.9 µM | HCC 2998 16.6 µM | HL-60 14.6 µM | Hs-578T 16.6 µM | IGROV-1 16.1 µM | LOX IMVI 16.1 µM | NCI-H23 20 µM | PC-3 9.4 µM | RPMI-8226 25.8 µM | SF-268 23.9 µM | SF-295 17.6 µM | SK-MEL-5 13.3 µM | SNB-75 15.1 µM | TK-10 22.6 µM | UACC-257 20 µM | UACC-62 18.2 µM

CC(C)(NC1=NCCO1)c1ccccc1
inactive: COLO 205 > 100 µM | EKVX > 100 µM | HCC 2998 > 100 µM | Hs-578T > 100 µM | IGROV-1 > 100 µM | LOX IMVI > 100 µM | NCI-H23 > 100 µM | PC-3 > 100 µM | RPMI-8226 > 100 µM | RXF 393 > 100 µM | SF-268 > 100 µM | SF-295 > 100 µM | SK-MEL-5 > 100 µM | SNB-75 > 100 µM | TK-10 > 100 µM | UACC-257 > 100 µM | UACC-62 > 100 µM

O=S1OC[C@H](CCCl)O1 (stereo partly drawn)
inactive: CCRF-CEM > 100 µM | COLO 205 > 100 µM | EKVX > 100 µM | HCC 2998 > 100 µM | HL-60 > 100 µM | Hs-578T > 100 µM | IGROV-1 > 100 µM | LOX IMVI 83.6 µM | NCI-H23 > 100 µM | PC-3 > 100 µM | RPMI-8226 > 100 µM | SF-295 > 100 µM | SK-MEL-5 > 100 µM | SNB-75 > 100 µM | TK-10 > 100 µM | UACC-257 > 100 µM | UACC-62 > 100 µM

CN(Cc1cnc2nc(N)nc(N)c2n1)c1ccc(C(=O)NC23CC4CC(CC(C4)C2)C3)cc1
inactive: CCRF-CEM 3.95 µM | COLO 205 10.4 µM | EKVX 13.2 µM | HL-60 12.2 µM | Hs-578T 12.9 µM | IGROV-1 5.9 µM | LOX IMVI 5.48 µM | NCI-H23 10.2 µM | PC-3 4.58 µM | RPMI-8226 22 µM | RXF 393 17.1 µM | SF-268 5.55 µM | SF-295 4.69 µM | SK-MEL-5 4.19 µM | SNB-75 21.5 µM | TK-10 14.5 µM | UACC-257 10.9 µM | UACC-62 3.66 µM

COc1cc(/C=C/C(C)=O)ccc1OP(=O)(O)O
inactive: COLO 205 > 100 µM | EKVX > 100 µM | HCC 2998 > 100 µM | Hs-578T > 100 µM | IGROV-1 > 100 µM | LOX IMVI > 100 µM | NCI-H23 > 100 µM | PC-3 > 100 µM | RPMI-8226 > 100 µM | RXF 393 > 100 µM | SF-268 > 100 µM | SF-295 > 100 µM | SK-MEL-5 > 100 µM | SNB-75 > 100 µM | TK-10 > 100 µM | UACC-257 > 100 µM | UACC-62 > 100 µM

CC1=NNC(=O)C1C1CC(c2c[nH]c3ccccc23)=NN(C(N)=O)C1=O (stereo not drawn)
inactive: CCRF-CEM 31 µM | COLO 205 53.2 µM | EKVX > 100 µM | HL-60 29 µM | Hs-578T 85.1 µM | IGROV-1 4.4 µM | LOX IMVI 62.7 µM | NCI-H23 29.9 µM | PC-3 65.3 µM | RPMI-8226 30.8 µM | RXF 393 52.1 µM | SF-268 > 100 µM | SF-295 61.2 µM | SK-MEL-5 82 µM | SNB-75 87.3 µM | TK-10 > 100 µM | UACC-257 > 100 µM | UACC-62 80.7 µM

O=C(CCCCCCCCC(=O)N1C(=O)CC(=O)N(c2cccc(Cl)c2)C1=S)N1C(=O)CC(=O)N(c2cccc(Cl)c2)C1=S
inactive: CCRF-CEM 32.7 µM | COLO 205 37.3 µM | EKVX 38.3 µM | HCC 2998 94.4 µM | Hs-578T 19.3 µM | LOX IMVI 47.1 µM | NCI-H23 39.7 µM | PC-3 26.6 µM | RPMI-8226 27.2 µM | RXF 393 44.9 µM | SF-268 57.4 µM | SF-295 28.1 µM | SK-MEL-5 28.7 µM | SNB-75 33.3 µM | TK-10 56.9 µM | UACC-257 45 µM | UACC-62 21.9 µM

C1=NN2C(c3ccccc3)=NOC2C2C(c3ccccc3)=NOC12 (stereo not drawn)
inactive: COLO 205 > 100 µM | EKVX > 100 µM | HCC 2998 > 100 µM | Hs-578T > 100 µM | IGROV-1 > 100 µM | LOX IMVI > 100 µM | NCI-H23 > 100 µM | PC-3 > 100 µM | RXF 393 > 100 µM | SF-268 > 100 µM | SF-295 > 100 µM | SK-MEL-5 58.7 µM | SNB-75 > 100 µM | TK-10 > 100 µM | UACC-257 > 100 µM | UACC-62 > 100 µM
